Measured values reported in US5670138A, “Mouth-care products” (Sara Lee/DE N.V., priority 1994, dated 1997).

Tests used:
[1] = test system: acid phosphatase and pyrophosphatase; assay: Inhibition of the enzymatic hydrolysis of pyrophosphate; type: biochemical; conditions: 480 ppm pyrophosphate, tris buffer pH=7
Experimental: To a solution, 3 ml, containing 480 ppm of pyrophosphate, various polymers, as defined in the table, optionally in combination with fluoride, and tris buffer (pH=7), 6*10^-2 U acid phosphatase and 4*10^-2 U pyrophosphatase ware added. The enzymatic hydrolysis of pyrophosphatase was determined by the withdrawal of 0.5 ml samples and measuring the orthophosphate concentration (V/MO complex).

[2] = Triclosan concentration in supernatant with polymer; conditions: 3000 ppm triclosan, no polymer
Experimental: Polymer and 3000 ppm bactericide (Bromochlorophene (BCP) or triclosan) were solved in distilled water at pH=12.5 (NaOH). […] The bactericide concentration was determined at pH 8, 7 or 6 in the supernatant solution by UV/VIS at pH=12.5 and 37° C.

## [F-].[Na+] [NaF, sodium fluoride]
[1]
  ppm orthophosphate after 60 min: 1.8 ppm
  ppm orthophosphate after 120 min: 3.9 ppm
  ppm orthophosphate after 240 min: 9.6 ppm

## Oc1cc(Cl)ccc1Oc1ccc(Cl)cc1Cl [triclosan, 5-chloro-2-(2,4-dichlorophenoxy)phenol]
[2]
  ppm triclosan in supernatant at pH 6: 7 ± 3 ppm
  ppm triclosan in supernatant at pH 7: 15 ± 1 ppm
  ppm triclosan in supernatant at pH 8: 30 ± 2 ppm
